Measured values as given in ChEMBL document CHEMBL1201862, “PubChem BioAssay data set” (2004).
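Growth conditions: 96-well plates. Treatment: test compound, 48 hours, 5 concentrations. Analysis: linear interpolation between bracketing concentrations; unreached endpoints set to highest concentration. GI50 is the concentration that inhibits growth by half.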 Active and inactive are the calls of the source. Rule as the data show it: active = GI50 up to about 1.1 µM and inactive = higher.

How the values were obtained:
Assay in all cases: NCI anticancer screen, dose series, 48 h
CCRF-CEM = tested on: CCRF-CEM
HCC 2998 = tested on: HCC 2998
KM12 = tested on: KM12
M14 = tested on: M14
MOLT-4 = tested on: MOLT-4
NCI-H522 = tested on: NCI-H522
NCI/ADR-RES = tested on: NCI/ADR-RES
OVCAR-5 = tested on: OVCAR-5
RXF 393 = tested on: RXF 393
SF-268 = tested on: SF-268
SF-539 = tested on: SF-539
SK-MEL-28 = tested on: SK-MEL-28
SK-OV-3 = tested on: SK-OV-3
SN12C = tested on: SN12C
SNB-75 = tested on: SNB-75
TK-10 = tested on: TK-10
U-251 = tested on: U-251
UACC-257 = tested on: UACC-257
UACC-62 = tested on: UACC-62
RPMI-8226 = tested on: RPMI-8226

Measured: GI50

c1ccc(OCc2nnc(CCCCCCCCc3nnc(COc4ccccc4)o3)o2)cc1
inactive: CCRF-CEM > 100 µM | HCC 2998 28.6 µM | KM12 > 100 µM | M14 > 100 µM | MOLT-4 > 100 µM | NCI-H522 50.6 µM | NCI/ADR-RES > 100 µM | OVCAR-5 > 100 µM | RXF 393 13.2 µM | SF-268 99.5 µM | SF-539 32.2 µM | SK-MEL-28 > 100 µM | SK-OV-3 32.8 µM | SN12C > 100 µM | SNB-75 28.1 µM | TK-10 > 100 µM | U-251 32.2 µM | UACC-257 > 100 µM

O=C1C=C/C(=C/[C@H]2SSC=C[C@]23C=CC(=O)C3)C1
inactive: CCRF-CEM 2.54 µM | HCC 2998 20.6 µM | KM12 21.3 µM | M14 17.2 µM | MOLT-4 1.36 µM | NCI-H522 11 µM | NCI/ADR-RES 23.8 µM | OVCAR-5 13 µM | RXF 393 13.3 µM | SF-268 26.5 µM | SF-539 12.2 µM | SK-MEL-28 18.9 µM | SK-OV-3 49.7 µM | SN12C 19.3 µM | SNB-75 33.7 µM | TK-10 24.7 µM | U-251 28.5 µM | UACC-257 28.1 µM | UACC-62 18 µM

Cc1ccnc2nc(N)ccc12
inactive: CCRF-CEM > 100 µM | KM12 > 100 µM | M14 > 100 µM | MOLT-4 > 100 µM | NCI-H522 > 100 µM | NCI/ADR-RES > 100 µM | OVCAR-5 > 100 µM | RPMI-8226 > 100 µM | RXF 393 > 100 µM | SF-268 > 100 µM | SF-539 > 100 µM | SK-MEL-28 > 100 µM | SK-OV-3 > 100 µM | SN12C > 100 µM | SNB-75 66.7 µM | TK-10 > 100 µM | U-251 > 100 µM | UACC-257 > 100 µM | UACC-62 > 100 µM

CC12CCC(=O)[C@@]1(C)CCCC2O (stereo not given in full)
inactive: CCRF-CEM > 100 µM | HCC 2998 > 100 µM | KM12 > 100 µM | M14 > 100 µM | MOLT-4 > 100 µM | NCI-H522 > 100 µM | NCI/ADR-RES > 100 µM | OVCAR-5 > 100 µM | RPMI-8226 > 100 µM | SF-268 > 100 µM | SF-539 > 100 µM | SK-MEL-28 > 100 µM | SK-OV-3 > 100 µM | SN12C > 100 µM | SNB-75 > 100 µM | TK-10 > 100 µM | U-251 > 100 µM | UACC-257 > 100 µM | UACC-62 > 100 µM

O=C(O)c1ccc(C(=O)O)c2c(C(=O)O)ccc(C(=O)O)c12
inactive: KM12 > 100 µM | M14 > 100 µM | MOLT-4 > 100 µM | NCI-H522 > 100 µM | NCI/ADR-RES > 100 µM | OVCAR-5 > 100 µM | RPMI-8226 > 100 µM | RXF 393 > 100 µM | SF-268 > 100 µM | SF-539 > 100 µM | SK-MEL-28 > 100 µM | SK-OV-3 > 100 µM | SN12C > 100 µM | SNB-75 > 100 µM | TK-10 > 100 µM | U-251 > 100 µM | UACC-257 > 100 µM | UACC-62 > 100 µM

CC=C/C=C/[C@@H]1O[C@](O)([C@H](CC)C(=O)NC/C=C/C=C(\C)[C@@H](OC)[C@@H](C)[C@@H]2O[C@H](/C=C/C=C/C=C(\C)C(=O)c3c(O)cc[nH]c3=O)[C@H](O)[C@@H]2O)[C@H](O)[C@H](O)C1(C)C
inactive: HCC 2998 > 100 µM | KM12 72.6 µM | M14 > 100 µM | MOLT-4 73.6 µM | NCI-H522 > 100 µM | NCI/ADR-RES > 100 µM | OVCAR-5 > 100 µM | RPMI-8226 88.7 µM | SF-268 > 100 µM | SF-539 > 100 µM | SK-MEL-28 > 100 µM | SK-OV-3 > 100 µM | SNB-75 > 100 µM | TK-10 > 100 µM | U-251 > 100 µM | UACC-257 > 100 µM | UACC-62 > 100 µM
